Measured values from ChEMBL document CHEMBL3864146, “5-Alkyloxytryptamines are membrane-targeting, broad-spectrum antibiotics” (Bioorg Med Chem Lett, 2016).
In brackets after ≈: the same amount, converted by molar mass.

Assays:
Bacillus subtilis = assay: Antibacterial activity against Bacillus subtilis 168 after 16 to 18 hrs by micro-dilution method; format: functional; conditions: subsp. subtilis str. 168
Staphylococcus aureus = assay: Antibacterial activity against Staphylococcus aureus after 16 to 18 hrs by micro-dilution method; format: functional
Acinetobacter baumannii = assay: Antibacterial activity against Acinetobacter baumannii after 16 to 18 hrs by micro-dilution method; format: functional
Escherichia coli [1] = assay: Antibacterial activity against Escherichia coli BW25113 after 16 to 18 hrs by micro-dilution method; format: functional
Escherichia coli [2] = assay: Antibacterial activity against tolC-deficient Escherichia coli BW25113 after 16 to 18 hrs by micro-dilution method; format: functional
Shigella boydii = assay: Antibacterial activity against Shigella boydii after 16 to 18 hrs by micro-dilution method; format: functional
Klebsiella aerogenes = assay: Antibacterial activity against Enterobacter aerogenes after 16 to 18 hrs by micro-dilution method; format: functional
Klebsiella pneumoniae = assay: Antibacterial activity against Klebsiella pneumoniae after 16 to 18 hrs by micro-dilution method; format: functional
Pseudomonas aeruginosa = assay: Antibacterial activity against Pseudomonas aeruginosa after 16 to 18 hrs by micro-dilution method; format: functional
Vibrio cholerae = assay: Antibacterial activity against Vibrio cholerae after 16 to 18 hrs by micro-dilution method; format: functional
Edwardsiella tarda = assay: Antibacterial activity against Edwardsiella tarda after 16 to 18 hrs by micro-dilution method; format: functional
Salmonella typhimurium = assay: Antibacterial activity against Salmonella typhimurium after 16 to 18 hrs by micro-dilution method; format: functional, Salmonella enterica subsp. enterica serovar Typhimurium; conditions: Salmonella enterica
Morganella morganii = assay: Antibacterial activity against Morganella morganii after 16 to 18 hrs by micro-dilution method; format: functional
Escherichia coli [3] = assay: Induction of membrane permeabilization in Escherichia coli BW25113 at MIC after 15 mins by propidium iodide staining-based fluorescence microplate reader method relative to 50% ethanol; format: functional

Row | Compound | MIC (Bacillus subtilis) [µg/mL] | MIC (Staphylococcus aureus) [µg/mL] | MIC (Acinetobacter baumannii) [µg/mL] | MIC (Escherichia coli [1]) [µg/mL] | MIC (Escherichia coli [2]) [µg/mL] | MIC (Shigella boydii) [µg/mL] | MIC (Klebsiella aerogenes) [µg/mL] | MIC (Klebsiella pneumoniae) [µg/mL] | MIC (Pseudomonas aeruginosa) [µg/mL] | MIC (Vibrio cholerae) [µg/mL] | MIC (Edwardsiella tarda) [µg/mL] | MIC (Salmonella typhimurium) [µg/mL] | MIC (Morganella morganii) [µg/mL] | Activity (Escherichia coli [3]) [%]
1 | NCCc1c[nH]c2ccccc12 [TRYPTAMINE] | > 51 | > 51 | > 51 | > 51 | > 51 |  |  |  |  |  |  |  |  | 
2 | CC(C)CCCC(C)CCOc1ccc2[nH]cc(CCN)c2c1.Cl (centres undefined) | 1.6 | 6.3 | 13 | 13 | 3.2 | 6.3 | 13 | 13 | 25 | 6.3 | 25 | 6.3 | > 101 | 
3 | CCCCCCCCCOc1ccc2[nH]cc(CC[N+](C)(C)C)c2c1 | 52 | 6.5 | 52 | 52 | 6.5 | 26 | 52 | 26 | 52 | > 104 | 26 | 26 | > 104 | 
4 | CCCCCCCCCCCCCCOc1ccc2[nH]cc(CCN)c2c1.Cl | 15 | 3.4 to 30 | > 119 | > 119 | > 119 | > 119 | > 119 | > 119 | > 119 | > 119 | > 119 | > 119 | > 119 | 11
5 | Cl.NCCc1c[nH]c2ccc(OCCCCCCCc3ccccc3)cc12 | 1.8 | 3.5 | 7 | 14 | 1.8 | 7 | 14 | 7 | 56 | 7 | 28 | 7 | > 112 | 
6 | COc1ccc2[nH]cc(CCN)c2c1 [5-METHOXYTRYPTAMINE] | > 60.8 | > 60.8 | > 60.8 | > 60.8 | > 60.8 |  |  |  |  |  |  |  |  | 
7 | CCCCCCCCCOc1ccc(CCN)cc1 | 0.66 (≈ 2.51 µM) | 2.6 (≈ 9.87 µM) | 5.3 (≈ 20.1 µM) | 5.3 (≈ 20.1 µM) | 1.3 (≈ 4.93 µM) | 5.3 (≈ 20.1 µM) | 11 (≈ 41.8 µM) | 5.3 (≈ 20.1 µM) | > 84 | 5.3 (≈ 20.1 µM) | > 84 | 5.3 (≈ 20.1 µM) | > 84 | 
8 | CCCCCCCCCOc1cccc(CN)c1 | 4.7 (≈ 18.8 µM) | 9.4 (≈ 37.7 µM) | 9.4 (≈ 37.7 µM) | 9.4 (≈ 37.7 µM) | 4.7 (≈ 18.8 µM) | 9.4 (≈ 37.7 µM) | 9.4 (≈ 37.7 µM) | 9.4 (≈ 37.7 µM) | > 75 | 4.7 (≈ 18.8 µM) | 19 (≈ 76.2 µM) | 4.7 (≈ 18.8 µM) | 38 (≈ 152 µM) | 
